According to paper PMC7822874, “Chemoprotective antimalarials identified through quantitative high-throughput screening of Plasmodium blood and liver stage parasites” (Scientific Reports, 2021):
Like-named read-outs stand apart in the source and are kept apart here.

Assays:
[1] = test system: HepG2-A16-CD81EGFP cells
[2] = in vitro; settings: human
[3] = test system: Plasmodium falciparum Dd2 asexual blood stage parasites; assay: microbe, parasite or virus in culture; design: species or system Plasmodium falciparum Dd2 in human erythrocytes; single determination (one 11-point concentration-response curve); settings: Plasmodium falciparum, DD2, Erythrocyte, 72 h
[4] = test system: P. berghei-ANKA-GFP-LucCON liver stage parasites in HepG2-A16-CD81EGFP cells; assay: P. berghei liver stage Pb-Luc assay, Method 1 (UCSD, 1536-well); assay type: cell-based, Plasmodium berghei; settings: Plasmodium berghei, 48 h; as to Pb-Luc signal, 1 uM, repeat 1: reference of the scale not given here; as to Pb-Luc signal, 1 uM, repeat 2: reference of the scale not given here; as to Pb-Luc signal, 1 uM, repeat 3: reference of the scale not given here; as to Pb-Luc signal, 3 uM, repeat 1: reference of the scale not given here; as to Pb-Luc signal, 3 uM, repeat 2: reference of the scale not given here; as to Pb-Luc signal, 3 uM, repeat 3: reference of the scale not given here
[5] = nominal 1 uM (10 mM stock), […] for 15 mM, 1.2 uM for 12 mM, 2 uM for 20 mM stock, average of 2 wells, repeat 2
[6] = nominal 3 uM (10 mM stock), 4.5 uM for 15 mM, 3.6 uM for 12 mM, 6 uM for 20 mM stock, average of 2 wells, repeat 2
[7] = HepG2-A16-CD81EGFP cells, uninfected
[8] = nominal 1 uM (10 mM stock), […] for 15 mM, 1.2 uM for 12 mM, 2 uM for 20 mM stock, average of 2 wells, 1536-well plate, repeat 1, read-out: Pb-Luc signal, 1 uM, repeat 1
[9] = nominal 1 uM (10 mM stock), […] for 15 mM, 1.2 uM for 12 mM, 2 uM for 20 mM stock, average of 2 wells, 1536-well plate, repeat 2, read-out: Pb-Luc signal, 1 uM, repeat 2
[10] = nominal 1 uM (10 mM stock), […] for 15 mM, 1.2 uM for 12 mM, 2 uM for 20 mM stock, average of 2 wells, 1536-well plate, repeat 3, read-out: Pb-Luc signal, 1 uM, repeat 3
[11] = nominal 3 uM (10 mM stock), 4.5 uM for 15 mM, 3.6 uM for 12 mM, 6 uM for 20 mM stock, average of 2 wells, 1536-well plate, repeat 1, read-out: Pb-Luc signal, 3 uM, repeat 1
[12] = nominal 3 uM (10 mM stock), 4.5 uM for 15 mM, 3.6 uM for 12 mM, 6 uM for 20 mM stock, average of 2 wells, 1536-well plate, repeat 2, read-out: Pb-Luc signal, 3 uM, repeat 2
[13] = nominal 3 uM (10 mM stock), 4.5 uM for 15 mM, 3.6 uM for 12 mM, 6 uM for 20 mM stock, average of 2 wells, 1536-well plate, repeat 3, read-out: Pb-Luc signal, 3 uM, repeat 3
[14] = read-out: Pb-Luc P. berghei liver stage signal, repeat 1
[15] = read-out: Pb-Luc P. berghei liver stage signal, repeat 2
[16] = read-out: Pb-Luc P. berghei liver stage signal, repeat 3

| Structure (SMILES) | HepG2 viability signal, 1 uM, repeat 2 [1, 5] | HepG2 viability signal, 3 uM, repeat 2 [1, 6] | viability at 48 h, 1 µM [2, 7] | viability at 48 h, 3 µM [2, 7] | AC50 ([3]; read-out: AC50) | activity at 1 µM [4, 8] | activity at 1 µM [4, 9] | activity at 1 µM [4, 10] | activity at 3 µM [4, 11] | activity at 3 µM [4, 12] | activity at 3 µM [4, 13] | further results |
| --- | --- | --- | --- | --- | --- | --- | --- | --- | --- | --- | --- | --- |
| Cc1ccc(CN2COc3cc(C)c4c(oc(=O)c5ccccc54)c3C2)cc1 [NCGC00116336-01] | 104.57% | 104.67% | 101% | 105% | 1330 nM | 94.2% | 106% | 96.8% | 71.6% | 78.2% | 92.4% | – |
| COc1ccc(-c2cc(=O)oc3c4c(ccc23)OCN(Cc2ccccc2)C4)cc1 [NCGC00116344-01] | 95.59% | 97.26% | 98.2% | 101% | 2990 nM | 71.5% | 126% | 103% | 62.6% | 101% | 76.9% | – |
| COc1ccccc1CN1COc2ccc3c(oc(=O)c4ccccc43)c2C1 [NCGC00116378-01] | 104.93% | 105.29% | 106% | 108% | 2110 nM | 85.6% | 85.1% | 110% | 73.3% | 86.8% | 88.1% | – |
| Cn1nnnc1SCCCNCc1cccc(OCc2ccccc2)c1 [NCGC00117957-01] | 101.95% | 103.35% | 97.9% | 101% | 9440 nM | 78.6% | 108% | 127% | 58.9% | 94% | 87.5% | – |
| COc1cccc(C2C(C(=O)Nc3ccc(C)cc3C)=C(C)Nc3c(C(=O)Nc4ccccc4)cnn32)c1 (stereo not shown) [NCGC00126286-01] | 98.62% | 98.36% | 94.8% | 99.4% | 2110 nM | 97.2% | 125% | 153% | 94.7% | 93.4% | 100% | – |
| CC1=C(C(=O)Nc2ccc(C)cc2C)C(c2ccc(Br)cc2)n2ncc(C(=O)Nc3cccc(C)c3)c2N1 (stereo not shown) [NCGC00126300-01] | 95.30% | 90.59% | 102% | 94.6% | 3350 nM | 94.7% | 120% | 115% | 75.3% | 87.7% | 102% | – |
| CC1=C(C(=O)Nc2ccc(C)cc2C)C(c2cc(Br)ccc2F)n2ncc(C(=O)Nc3ccc(C)cc3)c2N1 (stereo not shown) [NCGC00126328-01] | 98.10% | 99.55% | 100% | 107% | 1500 nM | 99.2% | 113% | 121% | 61.3% | 103% | 73.4% | – |
| CC1=C(C(=O)Nc2ccc(C)cc2C)C(c2ccc([N+](=O)[O-])cc2)n2ncc(C(=O)Nc3ccc(F)cc3)c2N1 (stereo not shown) [NCGC00126356-01] | 98.93% | 92.77% | 98.5% | 94.6% | 2990 nM | 110% | 107% | 122% | 80.3% | 94% | 83.4% | – |
| CCc1cccc(-n2c(=O)c3cccnc3n2CC(=O)NCc2ccccc2)c1 [NCGC00128448-01] | 105.26% | 100.08% | 105% | 100% | 1680 nM | 105% | 86.8% | 118% | 150% | 109% | 92.9% | – |
| CCN1CCN(c2cc(C)c3cc(NC(=O)c4cc(OC)c(OC)c(OC)c4)ccc3n2)CC1 [NCGC00137500-01] | 103.37% | 106.17% | 100% | 103% | 1330 nM | 125% | 156% | 138% | 126% | 103% | 114% | – |
| CCOC(=O)c1c(S(=O)(=O)N2CCCC(C(=O)N3CCN(c4cccc(C)c4C)CC3)C2)c(C)n(C)c1C (stereo not shown) [NCGC00138143-01] | 101.67% | 102.57% | 96.4% | 99.6% | 1060 nM | 90.2% | 90.3% | 120% | 83.2% | 98.3% | 108% | – |
| Cc1ccc(C)c(Oc2c(C(F)(F)F)oc3c(CN4CCN(C)CC4)c(O)ccc3c2=O)c1 [NCGC00141020-01] | 106.86% | 105.57% | 110% | 115% | 750 nM | 97.7% | 131% | 113% | 86% | 92.3% | 113% | – |
| Cc1ccc(O)c([C@H](CCN(C(C)C)C(C)C)c2ccccc2)c1 [NCGC00159519-02] | – | – | – | – | – | – | – | – | – | – | – | HepG2 viability, fourth HepG2 column ([1]; human): 99.21%; HepG2 viability, second HepG2 column ([1]; human): 104.09%; HepG2 viability, third HepG2 column ([1]; human): 100.98%; viability [2]: 103%; AC50 [3]: 4220 nM; activity at 1 µM [4, 14]: 106%; activity at 3 µM [4, 14]: 74.9%; activity at 1 µM [4, 15]: 80%; activity at 3 µM [4, 15]: 85.4%; activity at 1 µM [4, 16]: 106%; activity at 3 µM [4, 16]: 89% |
| CC(C)C(=O)N1Cc2ccccc2CC2(CCCN(CC3CCCCC3)C2)C1 (stereo not shown) [NCGC00377456-01] | 102.51% | 104.36% | 100% | 105% | 53.1 nM | 94.7% | 96.1% | 116% | 81.5% | 98% | 85.1% | – |
| COc1ccc2[nH]c(C[C@@H]3C[C@@H](C(C)C)[C@H](CNCc4ccccc4OC)C=C3C)nc2c1 [NCGC00392082-01] | 98.07% | 97.57% | 99% | 97.1% | 9440 nM | 67% | 80.5% | 77.5% | 48.5% | 52% | 40.1% | – |
| COc1ccc(-c2cc([C@H]3CN4CC[C@H]3C[C@@H]4CN[S+](=O)([O-])c3ccc(Cl)cc3)n(C)n2)cc1OC [NCGC00399828-01] | – | – | – | – | 2990 nM | 68.5% | 88.1% | 52.2% | 40.7% | 77% | 89.6% | HepG2 viability signal, 1 uM, repeat 2 ([1]; human, 48 h, 1 µM): 102.24%; HepG2 viability signal, 3 uM, repeat 2 ([1]; human, 48 h, 3 µM): 102.23%; viability at 48 h, 1 µM [2]: 98.9%; viability at 48 h, 3 µM [2]: 99.9% |
| O[C@H]1CC[C@@H](Cc2cc(-c3ccc(F)cc3)on2)O[C@@H]1CNC1CCCCC1 [NCGC00401034-01] | 105.13% | 100.53% | 104% | 107% | 2430 nM | 123% | 102% | 154% | 112% | 106% | 134% | – |
